Measurements from ChEMBL document CHEMBL1201862, “PubChem BioAssay data set” (2004).
Calls of active or inactive are those of the source.

How the values were obtained:
Cytochrome P450 2C19 = Cytochrome P450 2C19 (Homo sapiens, UniProt P33261); assay: Cytochrome panel assay with activity outcomes. Panel member name: p450-cyp2c19 Compounds with AC50 equal or less than 10 uM are considered active; format: functional; settings: read-out: AC50
Protein skinhead-1 = target: T1, Protein skinhead-1 (Caenorhabditis elegans, UniProt P34707); format: functional
T1 sequence (P34707 whole entry): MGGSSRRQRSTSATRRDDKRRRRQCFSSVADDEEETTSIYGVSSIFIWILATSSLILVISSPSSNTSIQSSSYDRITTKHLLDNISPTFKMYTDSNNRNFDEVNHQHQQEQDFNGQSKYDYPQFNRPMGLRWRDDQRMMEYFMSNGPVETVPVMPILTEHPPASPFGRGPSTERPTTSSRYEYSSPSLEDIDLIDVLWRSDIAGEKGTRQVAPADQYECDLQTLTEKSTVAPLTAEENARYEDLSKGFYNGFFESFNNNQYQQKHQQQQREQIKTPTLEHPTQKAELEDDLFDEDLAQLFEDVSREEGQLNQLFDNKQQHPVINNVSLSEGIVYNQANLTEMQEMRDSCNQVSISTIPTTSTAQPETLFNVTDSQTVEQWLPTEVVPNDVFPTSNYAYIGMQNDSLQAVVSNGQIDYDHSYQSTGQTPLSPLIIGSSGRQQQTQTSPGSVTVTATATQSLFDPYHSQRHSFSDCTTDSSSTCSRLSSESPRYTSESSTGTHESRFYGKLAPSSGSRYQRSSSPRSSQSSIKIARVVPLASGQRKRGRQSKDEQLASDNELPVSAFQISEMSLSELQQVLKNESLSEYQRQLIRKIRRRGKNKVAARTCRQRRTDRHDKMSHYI

[1] = HEp-2 cell cytotoxicity, dose response, cytotoxicity control for RSV inhibitor project, HTS (AID 2410); format: functional; settings: human respiratory syncytial virus
[2] = target: T2, Type-1 angiotensin II receptor (Homo sapiens, UniProt P30556); assay: AT1 receptor antagonists, dose response, selectivity assay for APJ receptor antagonist project, cell-based, uHTS hits (AID 463214); format: functional;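 note: antagonist potency against angiotensin II stimulated AT1 response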
T2 sequence (P30556 whole entry): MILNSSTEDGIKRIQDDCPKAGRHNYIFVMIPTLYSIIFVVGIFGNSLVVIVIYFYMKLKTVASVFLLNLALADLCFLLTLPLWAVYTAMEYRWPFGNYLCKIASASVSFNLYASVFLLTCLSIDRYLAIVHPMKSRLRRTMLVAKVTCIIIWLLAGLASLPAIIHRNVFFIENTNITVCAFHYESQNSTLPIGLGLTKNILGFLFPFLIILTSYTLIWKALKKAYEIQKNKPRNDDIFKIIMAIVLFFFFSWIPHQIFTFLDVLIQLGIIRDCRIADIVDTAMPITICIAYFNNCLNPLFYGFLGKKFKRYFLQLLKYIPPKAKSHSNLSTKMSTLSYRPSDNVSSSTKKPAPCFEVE

Beta-galactosidase = Beta-galactosidase (Escherichia coli, UniProt Q8VNN2); assay: PubChem AID 485352; format: functional
Sequence of Beta-galactosidase (Q8VNN2 whole entry): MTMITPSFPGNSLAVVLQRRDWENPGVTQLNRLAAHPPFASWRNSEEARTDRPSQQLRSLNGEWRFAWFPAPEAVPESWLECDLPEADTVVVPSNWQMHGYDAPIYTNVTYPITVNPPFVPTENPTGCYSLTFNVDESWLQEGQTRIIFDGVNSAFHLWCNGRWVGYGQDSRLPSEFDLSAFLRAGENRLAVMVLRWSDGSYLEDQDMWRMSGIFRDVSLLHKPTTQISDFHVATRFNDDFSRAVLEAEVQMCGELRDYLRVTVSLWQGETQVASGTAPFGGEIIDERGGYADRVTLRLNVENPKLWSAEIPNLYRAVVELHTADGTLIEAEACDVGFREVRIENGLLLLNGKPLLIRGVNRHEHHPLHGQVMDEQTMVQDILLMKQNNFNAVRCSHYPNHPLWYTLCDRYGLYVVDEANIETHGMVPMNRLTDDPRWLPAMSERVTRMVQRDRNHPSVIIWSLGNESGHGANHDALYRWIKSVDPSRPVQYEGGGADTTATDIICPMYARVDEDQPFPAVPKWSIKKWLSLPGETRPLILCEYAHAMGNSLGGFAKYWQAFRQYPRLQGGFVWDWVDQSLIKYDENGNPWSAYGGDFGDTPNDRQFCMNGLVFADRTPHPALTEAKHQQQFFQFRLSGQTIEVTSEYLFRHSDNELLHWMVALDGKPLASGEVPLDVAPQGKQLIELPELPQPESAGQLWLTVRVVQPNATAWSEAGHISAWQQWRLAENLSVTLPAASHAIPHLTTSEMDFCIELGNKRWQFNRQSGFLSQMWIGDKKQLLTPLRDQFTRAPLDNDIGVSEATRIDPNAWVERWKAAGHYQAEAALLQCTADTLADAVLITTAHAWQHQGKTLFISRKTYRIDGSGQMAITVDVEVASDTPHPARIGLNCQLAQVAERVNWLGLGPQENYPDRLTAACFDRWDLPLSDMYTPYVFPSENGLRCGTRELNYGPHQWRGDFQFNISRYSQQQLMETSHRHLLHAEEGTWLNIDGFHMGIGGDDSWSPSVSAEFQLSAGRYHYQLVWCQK

[3] = inhibitors of intracellular T. cruzi replication, confirmation, NIH3T3 host cells, beta-gal luminescence (AID 2044); format: functional, cell-based;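 note: intracellular parasites grown in NIH/3T3 mouse fibroblasts as host cells; luminescent beta-galactosidase reporter signal from transgenic T. cruzi replicating inside host cells; inhibitors lower the luminescence signal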
[4] = microbe, parasite or virus in culture; format: functional; settings: Mycobacterium tuberculosis
[5] = cytotoxicity toward NIH3T3 fibroblasts, dose response, counter-screen, cell-based, ATP luminescence, mouse fibroblasts (AID 2010); format: functional;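 note: cells exposed to compound for about 90 hours before reading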
[6] = target: Heat shock protein HSP 90-alpha (Homo sapiens, UniProt P07900); format: functional, organism-based
[7] = control 3'UTR Renilla luciferase suppression, dose response, counter-screen for Shn3 inhibitor project, cell-based, Clone20-Shn3RL, cherry-picked (AID 624133); format: functional
[8] = Shn3 3'UTR reporter inhibitors, dose response, cell-based, Clone20 osteoblasts, firefly luciferase, cherry-picked (AID 624132); format: functional;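 note: firefly luciferase luminescence from reporter carrying the Shn3 3'UTR in osteoblasts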
[9] = HepG2 cell cytotoxicity, dose response, cytotoxicity control for Shn3 inhibitor project, CellTiter-Glo, cherry-picked (AID 624134); format: functional, cell-based
Estrogen receptor beta = Estrogen receptor beta (Homo sapiens, UniProt Q92731);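 note: recombinant ER-beta bound to coactivator SRC1 peptide in presence of estradiol agonist; inhibitors block coactivator peptide binding and lower the FRET signal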
Sequence of Estrogen receptor beta (Q92731 whole entry): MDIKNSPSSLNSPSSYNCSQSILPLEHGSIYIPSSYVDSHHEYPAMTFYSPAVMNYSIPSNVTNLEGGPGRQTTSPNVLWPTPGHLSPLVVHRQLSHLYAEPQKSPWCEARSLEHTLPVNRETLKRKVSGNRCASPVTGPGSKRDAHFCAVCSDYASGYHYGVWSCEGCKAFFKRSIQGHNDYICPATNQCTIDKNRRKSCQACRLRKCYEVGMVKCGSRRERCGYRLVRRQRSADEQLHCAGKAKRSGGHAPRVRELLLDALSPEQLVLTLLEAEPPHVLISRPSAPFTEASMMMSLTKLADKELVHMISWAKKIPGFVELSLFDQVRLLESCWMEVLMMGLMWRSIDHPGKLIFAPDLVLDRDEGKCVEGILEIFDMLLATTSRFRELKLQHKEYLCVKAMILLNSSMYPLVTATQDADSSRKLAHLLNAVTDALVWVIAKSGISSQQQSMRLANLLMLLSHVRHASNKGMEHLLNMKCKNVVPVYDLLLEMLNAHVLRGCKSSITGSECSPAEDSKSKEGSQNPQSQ

[10] = THP-1 cell cytotoxicity, dose response, cytotoxicity control for Vif-APOBEC3G degradation inhibitor project, THP-1 cells (AID 1117359); format: functional; settings: Human immunodeficiency virus 1, THP-1
[11] = C. albicans growth with fluconazole, confirmation, fluorescence, retest (AID 2467); format: functional, cell-based
[12] = NIH-3T3 fibroblast cytotoxicity, dose response, cytotoxicity control, cell-based, fluorescence, Alamar Blue, secondary assay (AID 2327); format: functional;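 note: NIH-3T3 mouse fibroblasts cultured with fluconazole at 8 µg/mL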
Leucine aminopeptidase = target: T3, Leucine aminopeptidase (Plasmodium falciparum 3D7, UniProt Q8IL11); assay: P. falciparum M17LAP inhibitors, primary screen, biochemical, fluorogenic H-Leu-NHMec substrate, 1536-well (AID 1619); format: functional
T3 sequence (Q8IL11 whole entry): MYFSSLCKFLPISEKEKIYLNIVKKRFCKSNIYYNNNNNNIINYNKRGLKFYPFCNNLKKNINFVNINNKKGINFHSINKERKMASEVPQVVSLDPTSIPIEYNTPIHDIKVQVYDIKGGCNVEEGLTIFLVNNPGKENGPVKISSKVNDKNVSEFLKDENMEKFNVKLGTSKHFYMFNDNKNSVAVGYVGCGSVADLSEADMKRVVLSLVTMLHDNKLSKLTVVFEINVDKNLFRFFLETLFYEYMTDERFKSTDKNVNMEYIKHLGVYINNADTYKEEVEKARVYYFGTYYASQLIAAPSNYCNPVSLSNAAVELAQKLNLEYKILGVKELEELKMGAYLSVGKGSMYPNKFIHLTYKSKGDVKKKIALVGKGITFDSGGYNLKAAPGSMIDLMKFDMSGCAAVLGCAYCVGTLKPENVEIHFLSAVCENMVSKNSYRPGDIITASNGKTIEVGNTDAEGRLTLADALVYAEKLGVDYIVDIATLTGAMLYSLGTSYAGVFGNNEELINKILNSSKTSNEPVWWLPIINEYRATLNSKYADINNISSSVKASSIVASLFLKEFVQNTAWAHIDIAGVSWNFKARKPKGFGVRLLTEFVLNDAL

[13] = target: T4, Rac GTPase-activating protein 1 (Homo sapiens, UniProt Q9H0H5); assay: MgcRacGAP GTPase-activating activity inhibitors, confirmation, biochemical, ADP Hunter fluorescence, primary and confirmatory (AID 624330); format: functional
T4 sequence (Q9H0H5 whole entry): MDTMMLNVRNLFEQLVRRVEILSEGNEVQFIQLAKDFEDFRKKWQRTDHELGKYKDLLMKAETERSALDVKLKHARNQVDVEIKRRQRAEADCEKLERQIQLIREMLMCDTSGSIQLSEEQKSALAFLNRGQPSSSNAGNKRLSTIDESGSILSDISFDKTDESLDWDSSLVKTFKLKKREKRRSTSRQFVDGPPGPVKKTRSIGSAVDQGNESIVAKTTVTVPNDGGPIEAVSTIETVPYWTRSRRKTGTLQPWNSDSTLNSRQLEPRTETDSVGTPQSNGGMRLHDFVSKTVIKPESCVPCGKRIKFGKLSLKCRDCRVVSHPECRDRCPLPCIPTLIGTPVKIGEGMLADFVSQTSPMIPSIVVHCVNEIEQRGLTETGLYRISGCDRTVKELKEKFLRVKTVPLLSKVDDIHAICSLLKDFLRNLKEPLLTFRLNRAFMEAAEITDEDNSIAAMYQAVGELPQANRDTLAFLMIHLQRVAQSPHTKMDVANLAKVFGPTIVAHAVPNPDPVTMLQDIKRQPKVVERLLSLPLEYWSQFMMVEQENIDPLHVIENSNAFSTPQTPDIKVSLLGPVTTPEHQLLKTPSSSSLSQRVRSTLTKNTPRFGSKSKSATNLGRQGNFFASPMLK

[14] = target: FAD-linked sulfhydryl oxidase ALR (Homo sapiens, UniProt P55789); assay: inhibitors of human ALR sulfhydryl oxidase, dose response, biochemical, H2O2 detection, luminescence, cherry-pick (AID 493248)
Sequence of FAD-linked sulfhydryl oxidase ALR (P55789 whole entry): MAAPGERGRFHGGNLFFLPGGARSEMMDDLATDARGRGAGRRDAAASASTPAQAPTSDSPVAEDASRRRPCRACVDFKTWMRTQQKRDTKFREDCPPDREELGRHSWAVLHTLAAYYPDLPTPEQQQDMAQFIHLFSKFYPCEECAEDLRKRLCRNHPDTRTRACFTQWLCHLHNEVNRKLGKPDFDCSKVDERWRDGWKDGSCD

[15] = intracellular Trypanosoma cruzi inhibitors in host cells – cell-based, plate reader, cherry-pick samples, set 3, dose response (AID 651818); format: functional;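 note: compounds incubated with infected cells for about four days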
[16] = cytotoxicity in OVCAR8 ovarian cancer cells, dose response, PAX8 project, cell-based, plate reader, dry powder samples (AID 743197); format: functional; settings: OVCAR-8
Paired box protein Pax-8 = Paired box protein Pax-8 (Homo sapiens, UniProt Q06710); assay: inhibitors of PAX8-driven TPO luciferase reporter, dose response, RMG-I cells, cherry-pick (AID 687027); format: functional, cell-based;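 note: luciferase reporter driven by Pax8 target thyroperoxidase promoter measured by SteadyGlo luminescence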
Sequence of Paired box protein Pax-8 (Q06710 whole entry): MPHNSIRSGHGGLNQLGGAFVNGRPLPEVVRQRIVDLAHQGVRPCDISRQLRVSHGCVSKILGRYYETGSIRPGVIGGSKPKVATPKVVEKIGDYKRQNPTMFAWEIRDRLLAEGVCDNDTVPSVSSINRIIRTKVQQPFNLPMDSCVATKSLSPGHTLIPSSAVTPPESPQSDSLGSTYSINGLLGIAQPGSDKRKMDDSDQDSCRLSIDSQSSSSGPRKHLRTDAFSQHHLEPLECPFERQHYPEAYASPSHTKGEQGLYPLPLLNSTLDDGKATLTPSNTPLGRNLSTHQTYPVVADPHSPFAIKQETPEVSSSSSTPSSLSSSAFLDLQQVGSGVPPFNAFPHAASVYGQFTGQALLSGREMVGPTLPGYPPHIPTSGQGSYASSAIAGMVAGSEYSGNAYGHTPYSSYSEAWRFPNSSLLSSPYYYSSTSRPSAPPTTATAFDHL

[17] = NIH:OVCAR-3 ovarian cancer cell cytotoxicity, dose response, PAX8 inhibitor project, plate reader, dry powder samples (AID 743044); format: functional, cell-based
[18] = growth suppression of PTEN-null colon cells, dose response, cell-based, HCT116 PTEN knockout (AID 1047); format: functional;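 note: HCT116 colon tumor cells with PTEN knocked out; cells exposed to compound for 60 hours before readout; potency for loss of cell viability measured by luminescence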
[19] = growth suppression of beta-catenin-knockout colon cells, dose response, cell-based, HCT116, human colon tumor (AID 1045); format: functional;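 note: HCT116 colon tumor cells with beta catenin knocked out; cells exposed to compound for 60 hours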

Sequence of Cytochrome P450 2C19 (P33261 whole entry): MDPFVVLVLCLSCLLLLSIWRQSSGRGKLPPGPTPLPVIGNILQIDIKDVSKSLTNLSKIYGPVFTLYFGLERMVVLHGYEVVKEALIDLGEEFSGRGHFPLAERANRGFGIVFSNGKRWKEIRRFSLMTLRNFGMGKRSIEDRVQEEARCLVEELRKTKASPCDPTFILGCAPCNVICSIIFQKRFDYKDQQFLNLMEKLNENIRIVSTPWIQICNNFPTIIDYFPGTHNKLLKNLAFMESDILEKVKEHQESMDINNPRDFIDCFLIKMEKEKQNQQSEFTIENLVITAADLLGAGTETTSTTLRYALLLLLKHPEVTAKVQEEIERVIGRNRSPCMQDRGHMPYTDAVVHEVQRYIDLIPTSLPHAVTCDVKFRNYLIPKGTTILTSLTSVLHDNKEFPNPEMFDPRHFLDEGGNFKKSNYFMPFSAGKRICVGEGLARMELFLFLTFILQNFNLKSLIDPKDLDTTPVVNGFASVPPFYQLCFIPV

CCOc1ccc2nc(NC(=O)c3ccc(S(=O)(=O)N4CCOCC4)cc3)sc2c1
AC50 (Cytochrome P450 2C19): 2.82 µM (inconclusive) | IC50 (Protein skinhead-1): > 100 µM (inactive)

O=C(Nc1ccc(SC(F)F)cc1)c1ccccc1F
CC50 [1]: > 50 µM (active) | IC50 (Protein skinhead-1): 23.1 µM (active)

O=C(COC(=O)c1ccc(Br)o1)c1ccc(S(=O)(=O)N2CCCCC2)cc1
IC50 [2]: 23.2 µM (not active) | EC50 (Beta-galactosidase): > 40 µM (inactive)

CC1(c2cc([N+](=O)[O-])cc([N+](=O)[O-])c2)CC(C)(C)N(C(=O)c2ccccc2)c2ccccc21 (stereo not drawn)
EC50 [3]: 0.17 µM (active) | CC50 [4]: > 40 µM (active) | EC50 [5]: 10.7 µM (active)

Cc1cccc2cc(CN(Cc3nnnn3C3CCCCC3)C3CCCC3)c3nnnn3c12
AC50 [6]: 2.18 µM (active)

COc1ccc(-n2nnnc2-c2cnc(N3CCCC3)nc2C(F)(F)F)cc1
AC50 [7]: 4.77 µM (active) | AC50 [8]: 4.75 µM (active) | AC50 [9]: 50.8 µM (active)

c1ccc(-c2nc(-c3ccncc3)no2)cc1
IC50 (Protein skinhead-1): 16.3 µM (active)

O=C(NCc1ccc2c(c1)OCO2)c1ccc(Br)cc1
AC50 [6]: 4.38 µM (active)

C=CCn1c(SCc2cc(C(=O)OC)c(C)o2)nnc1-c1ccncc1
IC50 (Estrogen receptor beta): > 50 µM (not active)

CCOC(=O)C1=NNC(C(=O)c2ccc(Cl)cc2)C1c1ccccc1 (stereo not drawn)
IC50 [2]: 39.9 µM (not active) | EC50 (Beta-galactosidase): > 40 µM (inactive)

CCCCc1ccc(NC(=O)CC(C)(C)C)cc1
CC50 [10]: > 40 µM (active)

COC(=O)c1ccc(C(=O)OC)c(NC(=O)CSc2cccc[n+]2[O-])c1
CC50 [4]: > 40 µM (active) | EC50 [11]: 1.34 µM (active) | EC50 [12]: > 160 µM (inconclusive)

COc1ccccc1NC(=O)c1ccc(CN2CCOCC2)cc1
IC50 (Protein skinhead-1): > 100 µM (inactive)

CCN(CC)CC(=O)c1ccc(-c2ccccc2)cc1
IC50 (Leucine aminopeptidase): 60.2 µM (active) | IC50 [2]: 18.8 µM (active) | EC50 (Beta-galactosidase): > 40 µM (inactive)

O=S(=O)(c1ccc(N2CCCC2)cc1)C(F)(F)F
IC50 (Protein skinhead-1): > 100 µM (inactive)

Nc1cc([N+](=O)[O-])ccc1Nc1ccc(O)cc1
CC50 [4]: > 40 µM (active) | IC50 [13]: 38.2 µM (active) | AC50 [14]: 0.269 µM (active)

Cc1sc(NC(=O)C2=COCCO2)nc1-c1ccc(Cl)cc1
IC50 (Protein skinhead-1): > 100 µM (inactive)

C[C@H]1CN([C@@H](C)CO)C(=O)Cc2cc(NC(=O)Nc3cccc4ccccc34)ccc2O[C@@H]1CN(C)Cc1ccc(C(F)(F)F)cc1
AC50 [15]: 2.3 µM (active)

Cc1cc(C(=O)Nc2cccc3c2O[C@@H](CN(C)Cc2ccc(C(=O)Nc4ccccc4N)cc2)[C@@H](C)CN([C@H](C)CO)C3=O)n(C)n1
AC50 [15]: 2.45 µM (active)

C[C@@H]1CN([C@@H](C)CO)C(=O)Cc2cc(NC(=O)Nc3ccc(C(F)(F)F)cc3)ccc2O[C@@H]1CN(C)Cc1ccc(Cl)c(Cl)c1
AC50 [15]: 1.85 µM (active)

C[C@H](CO)N1C[C@H](C)[C@H](CN(C)S(=O)(=O)c2cccs2)Oc2c(NC(=O)c3cnccn3)cccc2C1=O
AC50 [15]: 2.44 µM (active)

C[C@@H]1CN([C@H](C)CO)C(=O)c2cccc(NC(=O)Nc3ccc(C(F)(F)F)cc3)c2O[C@@H]1CN(C)Cc1ccc(Cl)c(Cl)c1
AC50 [15]: 2.26 µM (active)

C[C@H](CO)N1C[C@H](C)[C@H](CN(C)Cc2ccc(Oc3ccccc3)cc2)Oc2c(NC(=O)CCCCCC(=O)Nc3ccccc3N)cccc2C1=O
AC50 [15]: 2.36 µM (active)

C[C@H]1CN([C@@H](C)CO)C(=O)c2cc(NS(=O)(=O)c3ccc(Cl)cc3)ccc2O[C@H]1CN(C)Cc1ccc(Cl)c(Cl)c1
AC50 [16]: > 70 µM (inactive) | AC50 (Paired box protein Pax-8): 7.5 µM (active)

C[C@@H]1CN([C@H](C)CO)C(=O)c2cc(NC(=O)Nc3ccc(C(F)(F)F)cc3)ccc2O[C@@H](C)CCCCO[C@H]1CN(C)C(=O)NC1CCCCC1
AC50 [16]: 47.2 µM (active) | AC50 [17]: 27.4 µM (active) | AC50 (Paired box protein Pax-8): 2.8 µM (active)

C[C@H](CO)N1C[C@H](C)[C@@H](CN(C)C(=O)C2CCCCC2)OCCCC[C@H](C)Oc2ccc(NS(=O)(=O)c3ccc(Cl)cc3)cc2C1=O
AC50 [17]: 24.4 µM (active) | AC50 (Paired box protein Pax-8): 8.51 µM (active)

C/C(=C\C(=S)Nc1ccccc1)Nc1ccc2ccccc2c1
CC50 [4]: 36.2 µM (active)

CC(C)N(C(=O)CO/N=C/c1cccc([N+](=O)[O-])c1)C(C)C
CC50 [10]: > 40 µM (active)

CCNc1nc(NC(C)(C)C)nc(N2CCCC2)n1
EC50 [18]: 25 µM (active) | EC50 [19]: 32.9 µM (active)
